Results reported in patent publication US20190084939A1, “ANALOGS OF FEXARAMINE AND METHODS OF MAKING AND USING” (Salk Institute for Biological Studies, priority 2014, published 2019).

Legend:
[1] = test system: TGR5 null mice; assay: chronic PO fexaramine in HFD-fed TGR5-null mice; type: in vivo; conditions: 100 mg/kg/day PO 5 weeks
Description: HFD-fed TGR5-null mice were treated with vehicle or fexaramine (100 mg/kg os daily for 5 weeks with HFD, n=10). (A) Ileal FXR target gene expressions (B) Serum BA levels (C) Fasting glucose levels (D) Glucose tolerance test (E) Core body temperature (F) Oxygen consumption rate (G) Carbon dioxide production (H) Gene expression in BAT (I) Body weight curve (J) Body composition by MRI (K) Insulin Tolerance Test (L) Hepatic gene expression (M) Hepatic TG levels (N) and Gene expression in soleus of TGR5 knockout mice with and without fexaramine treatment. Data represent the mean±SD. Statistical analysis was performed with the Student's t test. *p<0.05, **p<0.01.
To address this possibility, HFD-fed TGR5 null mice were chronically treated with Fex (100 mg/kg/day PO for 5 weeks). […] In particular, the anti-lipogenic effects of Fex in the liver appear to require TGR5 activation, as key hepatic lipogenic genes and liver triglyceride content were not affected by Fex treatment (FIGS. 11L, 11M).

[2] = test system: ob/ob mice; assay: fexaramine and deuterated analogs in ob/ob mice, 2 weeks; type: in vivo; conditions: 2 weeks at 50 mg/kg PO
Description: An in vivo study of fexaramine and selectively-deuterated fexaramine compounds (FIG. 29A) was performed. Briefly, ob/ob mice were treated daily with vehicle, Fex, or deuterated analogs (50 mg kg^−1) by oral (PO) gavage for 2 weeks. Subsequently, body weight, body temperature, fasting blood glucose and insulin levels, insulin secretion, and GLP1 section were measured, and glucose tolerance tests (GTTs) performed.

For `COC(=O)/C=C/c1cccc(N(Cc2ccc(-c3ccc(N(C)C)cc3)cc2)C(=O)C2CCCCC2)c1` [Fexaramine, fexaramine], the “FXR target genes in the ileum incl. FGF15” value [1] was “induced”, the “core body temperature and metabolic rate” value [1] was “somewhat blunted increases” and the “fasting glucose levels and glucose tolerance” value [1] was “moderate improvements”. For the same compound, the “hepatic lipogenic genes and liver triglyceride content” value [1] was “not affected”, the “serum BA levels” value [1] was “lowered” and the “weight gain or insulin sensitivity” value [1] was “no significant changes”. The body weight [2] was “do not affect body weight”, the core body temperature [2] was “did increase core body temperature” and the “fasting blood glucose levels” value [2] was “does not significantly affect”.
